# Data reported in ChEMBL document CHEMBL4627352, “New acrylamide-sulfisoxazole conjugates as dihydropteroate synthase inhibitors” (Bioorg Med Chem, 2020).
# Activity calls are given as the source filed them. The rule behind the calls is not given here.
# Tests used:
# Streptococcus pneumoniae [1] = test: Inhibition of DHPS in Streptococcus pneumoniae assessed as antibacterial activity by measuring inhibition zone at 5 mg/mL incubated for 24 hrs by disk diffusion method
# Bacillus subtilis [2] = test: Inhibition of DHPS in Bacillus subtilis assessed as antibacterial activity by measuring inhibition zone at 5 mg/mL incubated for 24 hrs by disk diffusion method
# [3] = tested on: Staphylococcus epidermidis; test: Inhibition of DHPS in Staphylococcus epidermidis assessed as antibacterial activity by measuring inhibition zone at 5 mg/mL incubated for 24 hrs by disk diffusion method
# Escherichia coli [4] = test: Inhibition of DHPS in Escherichia coli assessed as antibacterial activity by measuring inhibition zone at 5 mg/mL incubated for 24 hrs by disk diffusion method
# Proteus vulgaris [5] = test: Inhibition of DHPS in Proteus vulgaris assessed as antibacterial activity by measuring inhibition zone at 5 mg/mL incubated for 24 hrs by disk diffusion method
# Klebsiella pneumoniae [6] = test: Inhibition of DHPS in Klebsiella pneumoniae assessed as antibacterial activity by measuring inhibition zone at 5 mg/mL incubated for 24 hrs by disk diffusion method
# Streptococcus pneumoniae [7] = test: Inhibition of DHPS in Streptococcus pneumoniae assessed as antibacterial activity by measuring inhibition of bacterial growth incubated for 24 hrs by microbroth dilution method
# Bacillus subtilis [8] = test: Inhibition of DHPS in Bacillus subtilis assessed as antibacterial activity by measuring inhibition of bacterial growth incubated for 24 hrs by microbroth dilution method
# [9] = tested on: Staphylococcus epidermidis; test: Inhibition of DHPS in Staphylococcus epidermidis assessed as antibacterial activity by measuring inhibition of bacterial growth incubated for 24 hrs by microbroth dilution method
# Escherichia coli [10] = test: Inhibition of DHPS in Escherichia coli assessed as antibacterial activity by measuring inhibition of bacterial growth incubated for 24 hrs by microbroth dilution method
# Proteus vulgaris [11] = test: Inhibition of DHPS in Proteus vulgaris assessed as antibacterial activity by measuring inhibition of bacterial growth incubated for 24 hrs by microbroth dilution method
# Klebsiella pneumoniae [12] = test: Inhibition of DHPS in Klebsiella pneumoniae assessed as antibacterial activity by measuring inhibition of bacterial growth incubated for 24 hrs by microbroth dilution method
# Aspergillus fumigatus [13] = test: Inhibition of DHPS in Aspergillus fumigatus assessed as antifungal activity by measuring inhibition zone at 5 mg/mL incubated for 48 hrs by disk diffusion method
# [14] = tested on: Syncephalastrum racemosum; test: Inhibition of DHPS in Syncephalastrum racemosum assessed as antifungal activity by measuring inhibition zone at 5 mg/mL incubated for 48 hrs by disk diffusion method
# Geotrichum candidum [15] = test: Inhibition of DHPS in Geotrichum candidum assessed as antifungal activity by measuring inhibition zone at 5 mg/mL incubated for 48 hrs by disk diffusion method
# Aspergillus fumigatus [16] = test: Inhibition of DHPS in Aspergillus fumigatus assessed as antifungal activity by measuring inhibition of fungal growth incubated for 48 hrs by microbroth dilution method
# [17] = tested on: Syncephalastrum racemosum; test: Inhibition of DHPS in Syncephalastrum racemosum assessed as antifungal activity by measuring inhibition of fungal growth incubated for 48 hrs by microbroth dilution method
# Geotrichum candidum [18] = test: Inhibition of DHPS in Geotrichum candidum assessed as antifungal activity by measuring inhibition of fungal growth incubated for 48 hrs by microbroth dilution method
# [19] = tested on: Escherichia coli ATCC 25922; test: Inhibition of DHPS in Escherichia coli ATCC 25922 assessed as inhibition of bacterial growth incubated for 24 hrs in presence of folate precursor, pABA by microbroth dilution method
# [20] = tested on: Escherichia coli ATCC 25922; test: Inhibition of DHPS in Escherichia coli ATCC 25922 assessed as inhibition of bacterial growth incubated for 24 hrs in presence of folate dependent metabolite, methionine by microbroth dilution method
# [21] = tested on: Syncephalastrum racemosum; test: Potency index, ratio of amphotericin B MIC to compound MIC for Syncephalastrum racemosum assessed as inhibition of DHPS-mediated fungal growth incubated for 48 hrs by microbroth dilution method
# Bacillus subtilis [22] = test: Potency index, ratio of ampicillin MIC to compound MIC for Bacillus subtilis assessed as inhibition of DHPS-mediated bacterial growth incubated for 24 hrs by microbroth dilution method
# Escherichia coli [23] = test: Potency index, ratio of gentamycin MIC to compound MIC for Escherichia coli assessed as inhibition of DHPS-mediated bacterial growth incubated for 24 hrs by microbroth dilution method
# hTERT-BJ = test: Cytotoxicity against human hTERT-BJ1 cells at 50 uM by acid phosphatase assay relative to control; format: cell-based
# Aspergillus fumigatus [24] = test: Potency index, ratio of sulfisoxazole MIC to compound MIC for Aspergillus fumigatus assessed as inhibition of DHPS-mediated fungal growth incubated for 48 hrs by microbroth dilution method
# [25] = tested on: Syncephalastrum racemosum; test: Potency index, ratio of sulfisoxazole MIC to compound MIC for Syncephalastrum racemosum assessed as inhibition of DHPS-mediated fungal growth incubated for 48 hrs by microbroth dilution method
# Klebsiella pneumoniae [26] = test: Potency index, ratio of sulfisoxazole MIC to compound MIC for Klebsiella pneumoniae assessed as inhibition of DHPS-mediated bacterial growth incubated for 24 hrs by microbroth dilution method
# Escherichia coli [27] = test: Potency index, ratio of sulfisoxazole MIC to compound MIC for Escherichia coli assessed as inhibition of DHPS-mediated bacterial growth incubated for 24 hrs by microbroth dilution method
# Geotrichum candidum [28] = test: Potency index, ratio of sulfisoxazole MIC to compound MIC for Geotrichum candidum assessed as inhibition of DHPS-mediated fungal growth incubated for 48 hrs by microbroth dilution method
inhibition zone (IZ) (Streptococcus pneumoniae [1]) [mm],inhibition zone (IZ) (Bacillus subtilis [2]) [mm],inhibition zone (IZ) [3] [mm],inhibition zone (IZ) (Escherichia coli [4]) [mm],inhibition zone (IZ) (Proteus vulgaris [5]) [mm],inhibition zone (IZ) (Klebsiella pneumoniae [6]) [mm],MIC (Streptococcus pneumoniae [7]) [µg/mL],MIC (Bacillus subtilis [8]) [µg/mL],MIC [9] [µg/mL],MIC (Escherichia coli [10]) [µg/mL],MIC (Proteus vulgaris [11]) [µg/mL],MIC (Klebsiella pneumoniae [12]) [µg/mL],inhibition zone (IZ) (Aspergillus fumigatus [13]) [mm],inhibition zone (IZ) [14] [mm],inhibition zone (IZ) (Geotrichum candidum [15]) [mm],MIC (Aspergillus fumigatus [16]) [µg/mL],MIC [17] [µg/mL],MIC (Geotrichum candidum [18]) [µg/mL],inhibition [19],inhibition [20],Compound,other results
24.9,26.8,24.2,21.8,20.7,24.7,0.12,0.12,0.25,0.98,3.9,0.25,22.9,22.4,22.1,0.49,0.98,1.95,inactive,inactive,C=CCN/C(SCC)=C(/C#N)C(=O)Nc1ccc(S(=O)(=O)Nc2onc(C)c2C)cc1,Ratio [21]: 3; Ratio (Bacillus subtilis [22]): 2; Ratio (Escherichia coli [23]): 2
17.3,16.8,15.4,16.3,11.8,17.1,15.6,15.6,62.5,15.6,,31.2,16.3,15.1,16.9,31.2,62.5,62.5,inactive,inactive,CN/C(S[C@@H]1O[C@H](COC(C)=O)[C@H](OC(C)=O)[C@H](OC(C)=O)[C@H]1OC(C)=O)=C(/C#N)C(=O)Nc1ccc(S(=O)(=O)Nc2onc(C)c2C)cc1,Activity (hTERT-BJ): 26%; Ratio (Aspergillus fumigatus [24]): 1 to 3; Ratio [25]: 1 to 3
19.3,20.8,17.1,18.3,15.2,21.2,3.9,0.98,15.6,7.81,62.5,0.98,18.3,17.2,20.2,7.81,15.6,3.9,inactive,inactive,C=CCN/C(S[C@@H]1O[C@H](COC(C)=O)[C@H](OC(C)=O)[C@H](OC(C)=O)[C@H]1OC(C)=O)=C(/C#N)C(=O)Nc1ccc(S(=O)(=O)Nc2onc(C)c2C)cc1,Activity (hTERT-BJ): 28.6%; Ratio (Aspergillus fumigatus [24]): 1 to 3; Ratio (Klebsiella pneumoniae [26]): 4; Ratio (Escherichia coli [27]): 3; Ratio (Geotrichum candidum [28]): 2; Ratio [25]: 1 to 3
24.3,26.3,22.8,20.6,19.6,23.2,0.12,0.12,0.49,1.95,3.9,0.49,21.6,20.3,20.4,0.98,3.9,3.9,inactive,inactive,CCN/C(SCC)=C(/C#N)C(=O)Nc1ccc(S(=O)(=O)Nc2onc(C)c2C)cc1,Activity (hTERT-BJ): 8.5%; Ratio [21]: 2; Ratio (Bacillus subtilis [22]): 2
